From the supplement of paper PMC10307832

Experiments:
Test in all cases: relative viability (nuclei count vs DMSO), 5 days (fraction); higher = more cells survive
[1] = system: NCI-H1651
Summary of the method: (§1)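 Dosing by pin tool came one day after lung cancer cell lines were seeded in 1536-well plates, using either one drug or a fixed anchor-drug dose plus five library-drug doses (not always all listed) in √10 steps. After 5 days, nuclei were counted on 4× images. Relative viability is treated-well nuclei count divided by vehicle-well nuclei count, and values are medians of duplicate plates.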

[2] = system: NCI-H661
Summary of the method: as §1

[3] = system: NCI-H2228
Summary of the method: as §1

[4] = system: NCI-H2347
Summary of the method: as §1

[5] = system: NCI-H647
Summary of the method: as §1

[6] = system: NCI-H2085
Summary of the method: as §1

[7] = system: HCC-44
Summary of the method: as §1

[8] = system: LC-2-ad
Summary of the method: as §1

[9] = system: COR-L23
Summary of the method: as §1

[10] = system: NCI-H2170
Summary of the method: as §1

[11] = system: NCI-H1395
Summary of the method: as §1

[12] = system: HOP-62
Summary of the method: as §1

[13] = system: NCI-H838
Summary of the method: as §1

[14] = system: NCI-H1355
Summary of the method: as §1

[15] = system: CAL-12T
Summary of the method: as §1

[16] = system: NCI-H23
Summary of the method: as §1

[17] = system: NCI-H1993
Summary of the method: as §1

[18] = system: NCI-H520
Summary of the method: as §1

[19] = system: NCI-H1666
Summary of the method: as §1

[20] = system: 201T
Summary of the method: as §1

[21] = system: LCLC-103H
Summary of the method: as §1

[22] = system: NCI-H322M
Summary of the method: as §1

Cc1cnc(-c2cnc(NCCNc3ccc(C#N)cn3)nc2-c2ccc(Cl)cc2Cl)[nH]1 + Nc1nc2[nH]cc(CCc3ccc(C(=O)N[C@@H](CCC(=O)O)C(=O)O)cc3)c2c(=O)[nH]1 [Pemetrexed] (partner 0.2 µM)
relative viability ([1]; first compound 0.08 µM): 0.574 | relative viability ([1]; first compound 0.253 µM): 0.493 | relative viability ([1]; first compound 0.8 µM): 0.528 | relative viability ([1]; first compound 2.53 µM): 0.537 | relative viability ([2]; first compound 0.08 µM): 0.876 | relative viability ([2]; first compound 0.253 µM): 0.887 | relative viability ([2]; first compound 0.8 µM): 0.738 | relative viability ([2]; first compound 2.53 µM): 0.649 | relative viability ([3]; first compound 0.08 µM): 0.36 | relative viability ([3]; first compound 0.8 µM): 0.386 | relative viability ([3]; first compound 2.53 µM): 0.288 | relative viability ([4]; first compound 0.08 µM): 0.44 | relative viability ([4]; first compound 0.253 µM): 0.42 | relative viability ([4]; first compound 0.8 µM): 0.398 | relative viability ([4]; first compound 2.53 µM): 0.431 | relative viability ([5]; first compound 0.08 µM): 0.18 | relative viability ([5]; first compound 0.253 µM): 0.148 | relative viability ([5]; first compound 0.8 µM): 0.145 | relative viability ([5]; first compound 2.53 µM): 0.114 | relative viability ([6]; first compound 0.08 µM): 1.01 | relative viability ([6]; first compound 0.253 µM): 0.852 | relative viability ([6]; first compound 0.8 µM): 0.885 | relative viability ([6]; first compound 2.53 µM): 0.955 | relative viability ([7]; first compound 0.08 µM): 0.633 | relative viability ([7]; first compound 0.253 µM): 0.631 | relative viability ([7]; first compound 0.8 µM): 0.643 | relative viability ([7]; first compound 2.53 µM): 0.685 | relative viability ([8]; first compound 0.08 µM): 0.276 | relative viability ([8]; first compound 0.8 µM): 0.252 | relative viability ([8]; first compound 2.53 µM): 0.247 | relative viability ([9]; first compound 0.08 µM): 0.191 | relative viability ([9]; first compound 0.253 µM): 0.19 | relative viability ([9]; first compound 0.8 µM): 0.198 | relative viability ([9]; first compound 2.53 µM): 0.185 | relative viability ([10]; first compound 0.08 µM): 0.253 | relative viability ([10]; first compound 2.53 µM): 0.25 | relative viability ([11]; first compound 0.08 µM): 0.958 | relative viability ([11]; first compound 0.253 µM): 0.823 | relative viability ([11]; first compound 0.8 µM): 0.826 | relative viability ([11]; first compound 2.53 µM): 0.756 | relative viability ([12]; first compound 0.08 µM): 0.26 | relative viability ([12]; first compound 0.253 µM): 0.339 | relative viability ([12]; first compound 0.8 µM): 0.312 | relative viability ([12]; first compound 2.53 µM): 0.236 | relative viability ([13]; first compound 0.08 µM): 0.249 | relative viability ([13]; first compound 0.253 µM): 0.247 | relative viability ([13]; first compound 0.8 µM): 0.236 | relative viability ([13]; first compound 2.53 µM): 0.243 | relative viability ([14]; first compound 0.08 µM): 1.06 | relative viability ([14]; first compound 0.253 µM): 0.907 | relative viability ([14]; first compound 0.8 µM): 0.991 | relative viability ([14]; first compound 2.53 µM): 0.915 | relative viability ([15]; first compound 0.08 µM): 1.19 | relative viability ([15]; first compound 0.253 µM): 1.04 | relative viability ([15]; first compound 0.8 µM): 1.17 | relative viability ([15]; first compound 2.53 µM): 0.919 | relative viability ([16]; first compound 0.08 µM): 0.667 | relative viability ([16]; first compound 0.253 µM): 0.634 | relative viability ([16]; first compound 0.8 µM): 0.486 | relative viability ([16]; first compound 2.53 µM): 0.438 | relative viability ([17]; first compound 0.08 µM): 0.6 | relative viability ([17]; first compound 0.253 µM): 0.512 | relative viability ([17]; first compound 0.8 µM): 0.535 | relative viability ([17]; first compound 2.53 µM): 0.519 | relative viability ([18]; first compound 0.08 µM): 0.729 | relative viability ([18]; first compound 0.253 µM): 0.727 | relative viability ([18]; first compound 0.8 µM): 0.74 | relative viability ([18]; first compound 2.53 µM): 0.492 | relative viability ([19]; first compound 0.08 µM): 0.91 | relative viability ([19]; first compound 0.253 µM): 0.824 | relative viability ([19]; first compound 0.8 µM): 0.843 | relative viability ([19]; first compound 2.53 µM): 0.747 | relative viability ([20]; first compound 0.08 µM): 0.316 | relative viability ([20]; first compound 0.8 µM): 0.345 | relative viability ([20]; first compound 2.53 µM): 0.301 | relative viability ([21]; first compound 0.08 µM): 0.49 | relative viability ([21]; first compound 0.253 µM): 0.43 | relative viability ([21]; first compound 0.8 µM): 0.453 | relative viability ([21]; first compound 2.53 µM): 0.418 | relative viability ([22]; first compound 0.08 µM): 0.603 | relative viability ([22]; first compound 0.253 µM): 0.584 | relative viability ([22]; first compound 0.8 µM): 0.548 | relative viability ([22]; first compound 2.53 µM): 0.562
